According to US7074814B2, “3-substituted indoles and derivatives thereof as therapeutic agents” (Warner-Lambert Company LLC, priority 2003, dated 2006):

Target: T1, p101/p110γ protein (PI3Kγ) (Homo sapiens, UniProt P48736)
T1 construct: HA; made in house; host or cells: Spodoptera frugiperda (Sf9) cells, baculovirus coinfection
Assay: PI3Kγ in vitro kinase assay
Assay type: biochemical
Conditions: purified recombinant p101/p110γ with G protein β1/γ2 subunits; 20 μM ATP, 25 μM PIP2; 20 minutes at room temperature
Experimental: Spodtera frugiperda cells, grown in ESF921 media, were coinfected with baculovirus expressing a glu-tagged p101 and baculovirus expressing an HA-tagged p110γ, at a 3:1 ratio of p101 baculovirus to p110γ baculovirus. Sf9 cells were grown to 1×10^7 total cells/mL in 10 L bioreactors and harvested 48–72 hours post infection. Samples of infected cells were then tested for expression of […] PI3 kinase by immunoprecipitation and Western Blot analysis methods (see below).
To purify PI3Kγ, 4 volumes of room temperature hypotonic lysis buffer (1 mM MgCl2, 1 mM DTT, 5 mM EGTA, 1 mM Pefabloc, 0.5 μM aprotinin, 5 μM leupeptin, 2 μM pepstatin, 5 μM E64, pH 8) per gram of cell paste, was poured onto frozen cell pellets with stirring, then lysed in a nitrogen “bomb” at 400 psi (599HC T316, Parr Instrument Co, Moline, Ill.). NaCl was added to 150 mM, and sodium cholate was added to 1% and mixed for another 45 minutes. The lysates were clarified by centrifugation for 25 minutes at 14,000 rpm. The lysates were then loaded over anti-glu-linked Protein-G Sepaharose beads (Covance Research Products, Richmond, Calif.) using 20 mL resin/50 g cell paste. The column was washed with 15 volumes of wash buffer (1 mM DTT, 0.2 mM EGTA, 1 mM Pefabloc, 0.5 μM aprotinin, 5 μM leupeptin, 2 μM pepstatin, 5 μM E64, 150 mM NaCl, 1% sodium cholate, pH 8). PI3Kγ was eluted with 6 column volumes of wash buffer that contain 100 μg/mL of a peptide that competes for binding of the glu tag. The column fractions with the eluted protein (determined by taking OD280 readings) were collected and dialyzed in 0.2 mM EGTA, 1 mM DTT, 1 mM Pefabloc, 5 μM leupeptin, 0.5% sodium cholate, 150 mM NaCl, and 50% glycerol, pH 8. The fractions were stored at −80° C. until further use.
Spodtera frugiperda cells were coinfected with baculovirus expressing a glu-tagged G protein β1 and baculovirus expressing a G protein β2, at a 1:1 ratio of glu-tagged G protein β1 baculovirus to G protein β2 baculovirus. Sf9 cells are grown in 10 L bioreactors and harvested 48–72 hours post infection. Samples of infected cells were tested for G protein β1/β2 expression by Western Blot analysis, as described below. Cell lysates were homogenized and loaded onto a column of glu-tagged beads as in Biological Example 1 and competed off the column with a glu peptide and processed as described in Biological Example 1.
The inhibitory properties of the compounds in Table 1 were assayed in an in vitro PI3K assay. In a 96-well polypropylene plate, each well was spotted with 2 μL of 50 times the desired final concentration of compound in DMSO. Purified recombinant p101/p110γ protein (0.03 μg; ˜2.7 nM) and G protein β1/γ2 subunits (0.09 μg; ˜57.7 nM) for each reaction was combined in the assay buffer (30 mM HEPES, 100 mM NaCl, 1 mM EGTA, and 1 mM DTT). ATP and [γ-^32P-ATP] (0.09 μCi) were added to this mixture so that the final ATP concentration in the reaction was 20 μM. Lipid micelles were formed by sonicating phosphatidylinositol-4,5-diphosphate (PIP2), phosphatidylethanolamine (PE), and Na-cholate in the assay buffer for 10 minutes, adding MgCl2 and incubating on ice for 20 minutes, for final concentrations of 25 μM PIP2, 300 μM PE, 0.02% Na-cholate, and 10 mM MgCl2 in the reaction. The reactions were started by adding equal volumes lipid and enzyme mixture in a total volume of 50 μL, allowed to run for 20 minutes at room temperature, and stopped with 100 μL 75 mM H3PO4. The lipid product was transferred to a glass fiber filter plate and washed with 75 mM H3PO4 several times. The presence of radioactive lipid product (PIP3) was measured by adding Wallac Optiphase mix to each well and counting in a Wallac 1450 Trilux plate reader (PerkinElmer Life Sciences Inc., Boston, Mass. 02118). The IC50 for each compound tested is reported in μM in Table 1: […]

T1 sequence (P48736 whole entry, species assumed): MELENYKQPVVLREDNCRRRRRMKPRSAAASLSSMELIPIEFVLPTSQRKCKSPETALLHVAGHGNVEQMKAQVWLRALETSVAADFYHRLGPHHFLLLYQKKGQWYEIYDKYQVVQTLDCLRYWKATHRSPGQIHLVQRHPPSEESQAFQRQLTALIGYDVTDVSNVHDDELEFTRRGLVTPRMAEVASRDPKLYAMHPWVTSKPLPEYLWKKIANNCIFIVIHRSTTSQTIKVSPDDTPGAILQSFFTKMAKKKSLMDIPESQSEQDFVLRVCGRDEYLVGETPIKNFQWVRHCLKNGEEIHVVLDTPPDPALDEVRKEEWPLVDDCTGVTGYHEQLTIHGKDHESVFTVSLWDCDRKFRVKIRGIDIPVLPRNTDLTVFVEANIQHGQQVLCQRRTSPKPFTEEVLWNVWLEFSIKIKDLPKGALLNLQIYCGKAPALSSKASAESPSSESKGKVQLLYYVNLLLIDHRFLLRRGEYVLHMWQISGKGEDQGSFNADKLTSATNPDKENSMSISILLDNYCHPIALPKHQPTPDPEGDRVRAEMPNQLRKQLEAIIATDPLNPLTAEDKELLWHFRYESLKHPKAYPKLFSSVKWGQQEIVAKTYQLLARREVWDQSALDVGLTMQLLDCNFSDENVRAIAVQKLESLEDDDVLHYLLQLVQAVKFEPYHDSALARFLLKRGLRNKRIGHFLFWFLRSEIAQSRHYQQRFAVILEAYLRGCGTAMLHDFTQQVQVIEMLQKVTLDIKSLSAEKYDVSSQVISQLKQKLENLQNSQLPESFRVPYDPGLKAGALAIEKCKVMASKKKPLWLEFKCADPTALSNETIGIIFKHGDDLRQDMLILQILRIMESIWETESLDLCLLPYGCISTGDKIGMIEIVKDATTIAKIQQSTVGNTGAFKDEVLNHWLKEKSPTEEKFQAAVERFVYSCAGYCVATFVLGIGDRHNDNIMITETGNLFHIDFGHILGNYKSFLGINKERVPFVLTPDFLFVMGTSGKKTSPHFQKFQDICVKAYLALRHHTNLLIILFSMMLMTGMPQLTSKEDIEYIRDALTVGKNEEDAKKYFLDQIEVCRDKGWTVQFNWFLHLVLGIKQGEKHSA
T1 sequence (Q8WYR1 whole entry partner, species assumed): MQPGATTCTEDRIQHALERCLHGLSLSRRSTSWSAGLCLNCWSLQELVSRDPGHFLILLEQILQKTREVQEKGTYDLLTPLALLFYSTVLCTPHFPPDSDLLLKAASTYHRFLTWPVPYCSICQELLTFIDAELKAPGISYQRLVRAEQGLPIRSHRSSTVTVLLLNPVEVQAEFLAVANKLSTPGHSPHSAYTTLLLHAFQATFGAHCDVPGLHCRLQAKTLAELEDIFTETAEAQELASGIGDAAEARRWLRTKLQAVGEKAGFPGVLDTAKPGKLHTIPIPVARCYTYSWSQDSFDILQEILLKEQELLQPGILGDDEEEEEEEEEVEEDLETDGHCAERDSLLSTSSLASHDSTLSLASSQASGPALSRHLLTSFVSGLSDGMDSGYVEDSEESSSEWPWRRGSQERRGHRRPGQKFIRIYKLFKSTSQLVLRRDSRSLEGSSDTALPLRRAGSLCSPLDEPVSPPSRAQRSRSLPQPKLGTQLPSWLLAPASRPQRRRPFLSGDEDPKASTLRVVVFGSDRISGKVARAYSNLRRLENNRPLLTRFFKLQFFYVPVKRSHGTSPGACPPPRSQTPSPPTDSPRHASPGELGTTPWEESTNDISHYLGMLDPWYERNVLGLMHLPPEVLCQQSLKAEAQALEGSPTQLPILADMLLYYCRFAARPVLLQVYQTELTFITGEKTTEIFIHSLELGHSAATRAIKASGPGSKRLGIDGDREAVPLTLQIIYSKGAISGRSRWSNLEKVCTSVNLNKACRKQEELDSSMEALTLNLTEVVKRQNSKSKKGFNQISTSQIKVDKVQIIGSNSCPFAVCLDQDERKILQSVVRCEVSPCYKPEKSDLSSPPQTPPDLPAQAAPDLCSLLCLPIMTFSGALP

IC50	Molecule
0.585 µM	COc1cc2[nH]c(C(=O)Nc3nn[nH]n3)c(Sc3ccccc3C)c2cc1OC [Example 1, 5,6-Dimethoxy-3-o-tolylsulfanyl-1H-indole-2-carboxylic acid (2H-tetrazol-5-yl)-amide]
1.84 µM	COc1cc2[nH]c(C(=O)Nc3nn[nH]n3)c(Sc3ccc(Cl)c(Cl)c3)c2cc1OC [Example 2, 3-(3,4-Dichloro-phenylsulfanyl)-5,6-dimethoxy-1H-indole-2-carboxylic acid (2H-tetrazol-5-yl)-amide]
0.55 µM	COc1cc2c(Sc3ccccc3)c(C(=O)Nc3nn[nH]n3)n(C)c2cc1OC [Example 3, 5,6-Dimethoxy-1-methyl-3-phenylsulfanyl-1H-indole-2-carboxylic acid (2H-tetrazol-5-yl)-amide]
0.21 µM	COc1cc2[nH]c(C(=O)Nc3nn[nH]n3)c(Sc3ccccc3)c2cc1OC [Example 4, 5,6-Dimethoxy-3-phenylsulfanyl-1H-indole-2-carboxylic acid (2H-tetrazol-5-yl)-amide]
0.725 µM	COc1cccc(Sc2c(C(=O)Nc3nn[nH]n3)[nH]c3cc(OC)c(OC)cc23)c1 [Example 5, 5,6-Dimethoxy-3-(3-methoxy-phenylsulfanyl)-1H-indole-2-carboxylic acid (2H-tetrazol-5-yl)-amide]

Molecule	IC50
1-Ethyl-5,6-dimethoxy-3-phenyl-1H-indole-2-carboxylic acid (1H-tetrazol-5-yl)-amide [Example 6]	6.6 µM
5,6-Dimethoxy-3-phenyl-1-propyl-1H-indole-2-carboxylic acid (1H-tetrazol-5-yl)-amide [Example 7]	4.15 µM
